Experimental data taken from PubChem BioAssay (NCI).
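Five compound concentrations were applied to cells in 96-well plates for 48 hours; endpoints were derived by simple linear interpolation of the resulting dose-response curve. The concentration for 50% growth inhibition is given as GI50. TGI marks complete inhibition of growth.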

What was measured:
Assay in all cases: growth of human tumour cells (NCI), 48 h
DLD-1 colon = system: DLD-1 colon
DMS 114 small cell lung = system: DMS 114 small cell lung
DMS 273 small cell lung = system: DMS 273 small cell lung
LXFL 529 NSCLC = system: LXFL 529 NSCLC
RXF-631 renal = system: RXF-631 renal

Row | SMILES | TGI (DLD-1 colon) [µM] | TGI (DMS 114 small cell lung) [µM] | TGI (DMS 273 small cell lung) [µM] | TGI (LXFL 529 NSCLC) [µM] | TGI (RXF-631 renal) [µM] | GI50 (DLD-1 colon) [µM] | GI50 (DMS 114 small cell lung) [µM] | GI50 (LXFL 529 NSCLC) [µM] | GI50 (RXF-631 renal) [µM] | GI50 (DMS 273 small cell lung) [µM]
1 | COc1ccc(C(=O)NCCN(C)C)c2nc3ccccc3nc12 | > 65.4 | 12.5 | > 100 | > 37.9 | > 100 |  |  |  |  | 
2 | Cc1nc(C(N)=S)sc1C(=O)/C=C/c1c(O)ccc2ccccc12 | > 100 | 98.1 | > 100 | > 100 | > 100 |  |  |  |  | 
3 | O=[N+]([O-])c1ccc(Sc2c3ccccc3nc3cc(Cl)ccc23)cc1 | > 100 | > 100 | > 1 | > 100 | > 100 | > 100 | > 100 | > 100 | > 100 | 
4 | C[N+](C)(C)CC1CCCCC1O (stereo not drawn) | > 100 |  | > 100 | > 100 | > 100 |  |  |  |  | 
5 | Nc1ncnc2c1ncn2CC(O)CO (stereo not drawn) | > 100 | > 100 | > 100 | > 100 | > 100 |  |  |  |  | 
6 | O=c1oc2ccccc2[n+]([O-])c1-c1ccccc1 | > 100 | > 100 | > 100 | > 100 | > 100 |  |  |  |  | 
7 | Cc1ccccc1C(=O)N1CCN(C(=O)c2ccccc2C)CC1 | > 100 |  | > 100 | > 100 | > 100 |  |  |  |  | 
8 | CCCCN(CCCC)C(=O)/C(CC(=O)c1cccc2ccccc12)=N\NC(=O)c1cc2ccccc2cc1O | > 100 |  |  | > 100 | 70.5 |  |  |  |  | 
9 | CSC(=S)N/N=C/c1nccc2ccccc12 | 22.4 |  | > 21.8 | 24.6 | > 82.9 |  |  |  |  | 
10 | C/C(=N\NC(=O)CC#N)c1c(O)cc(C)oc1=O | > 100 |  |  | > 100 | > 100 |  |  |  |  | 
11 | Cc1c(C(=O)O)oc2ccc([N+](=O)[O-])cc12 | > 100 | > 100 | > 100 | > 100 | > 100 |  |  |  |  | 
12 | N/N=C1\C(=O)N(CCc2ccccc2)C(=O)C1C(=O)NCCc1ccccc1 (stereo not drawn) | > 100 |  | > 100 | > 100 | > 100 |  |  |  |  | 
13 | Cc1ccccc1NC(=O)C1C(=O)N(c2ccccc2C)C(=O)/C1=N\NC(N)=S (stereo not drawn) | > 100 |  | > 100 | > 100 | > 100 |  |  |  |  | 
14 | C=CC(OCC)(OCC)OCC | > 100 | 31.2 | 37.9 | > 100 | > 100 |  |  |  |  | 
15 | CCOC(=O)c1cc2c3c(c(O)c(OC)c2s1)N(C(=O)c1cc2c4c(c(O)c(OC)c2s1)N(C(C)=O)CC4)CC3 | > 100 | > 100 | > 100 | > 100 | > 100 |  |  |  |  | 
16 | COC(=O)C1(C(=O)OC)CC(=O)c2cc3c(cc2-c2c(cc(OC)c(OC)c2OC)C1)OCO3 | > 211 |  | > 211 | > 211 | > 211 |  |  |  |  | 
17 | CCNC(=O)COc1ccc(Cl)cc1Cl | > 100 | > 100 | > 100 | > 100 | > 100 |  |  |  |  | 
18 | COC(=O)C1(O)CC(=O)CCC1c1ccc(OC)cc1 (stereo not drawn) | > 100 | > 100 | > 100 |  | > 100 |  |  |  |  | 
19 | CC(C)(C)C(=O)[CH-]C(=O)C(C)(C)C.CC(C)(C)C(=O)[CH-]C(=O)C(C)(C)C.CN(C)c1ccc([O-])cc1.CN(C)c1ccc([O-])cc1.[Ti+4] | > 100 | > 100 | > 100 | > 100 | > 100 | > 100 | > 100 | 57.9 | > 100 | > 100
